Assays:
Format in all cases: cell-based, human
normal hair follicles = assay: Hair follicle growth in normal hair follicle organoid; conditions: for hair follicle length compared to the control: 14 days after drug treatment
Excerpt: The hair follicle growth was compared after treatment with each of minoxidil, which is known to promote hair follicle growth, and dihydrotestosterone (DHT), which is an endogenous hormone causing hair loss.

hair follicles in SkOs = assay: Hair follicle damage in sUV-exposed SkOs
Method: The effects of sUV exposure on skin appendages in the dermis of SkOs were investigated. As a result, it was confirmed that the expression of a KRT5 marker constituting the outer layer of a hair follicle in SkOs was reduced. […] Accordingly, to thoroughly compare the extent of hair follicle damage, hair follicles were isolated from each skin organoid and subjected to qRT-PCR analysis. […] To determine the optimal concentration of UCB-Exos for alleviating SkO damage by sUV, SkOs were treated with different concentrations of UCB-Exos two hours after sUV exposure, and this procedure was repeated three times (FIG. 5A). […] The effect of UCB-Exos on hair follicles in SkOs was investigated. In the hair follicles, apoptosis (cleaved caspase-3^+) was reduced, and the number of regenerating cells (Ki67^+) increased (FIGS. 6A and 6B). In addition, keratinocytes and fibroblasts in the hair follicles aged by sUV are known to secrete MMPs and inflammatory cytokines known as a senescence-associated secretory phenotype (SASP).

NF-κB = assay: IκB/NF-κB signaling in sUV-exposed SkOs (Western blotting, immunofluorescence)
Excerpt: NF-κB is known to play an important role in regulating the expression of immune mediators. […] When activated by external stimuli such as inflammatory cytokines or cellular stress, the IκBα protein is phosphorylated and subsequently degraded, releasing NF-κB from the NF-κB-IκB complex. The released NF-κB translocates to the cell nucleus to promote the transcription of genes involved in inflammation and induce cytokine production. Considering the above, the present inventors investigated whether IκB-dependent NF-κB activation mediates the inflammatory response in hair follicles.
This caused the disruption of the NF-κB-IκB complex which activated NF-κB and caused it to translocate to the nucleus, as evidenced by increased NF-κB expression in the nuclear compartment of SkOs exposed to sUV. After treating the sUV-exposed SkOs with UCB-Exos, it was observed that both IκBα phosphorylation and degradation decrease, and nuclear translocation of NF-κB was inhibited (FIGS. 7A and 7B). […] Generally, hair follicles are composed of keratinocytes and fibroblasts, both of which play an important role in skin inflammatory responses. […] Meanwhile, the epidermis of SkOs, which is the uppermost layer exposed to sUV, was also inflamed, which may extend to the dermis and indirectly damage hair follicles (FIGS. 7G and 7H).
To evaluate the direct effect of UCB-Exos alleviating sUV-induced damage by NF-κB activation, the present inventors treated a sUV-damaged organoid with the NF-κB inhibitor, BAY11-7082. BAY11-7082 is known to inhibit the translocation of NF-κB to the nucleus by inhibiting the degradation of IκBα unit, thereby preventing further activation of NF-κB signaling.
As expected, it was confirmed that IL-6 expression was positively correlated with the expression level of NF-κB (FIGS. 8A and 8B).

[1] = tested on: inflammatory cytokines, such as IL-6, TNF-α, and IL-1β; assay: Inflammatory cytokine expression and secretion in sUV-exposed SkOs (qPCR, immunofluorescence, ELISA)
Method: It is known that sUV irradiation causes the secretion of pro-inflammatory cytokines in skin tissue, leading to skin inflammation and subsequent skin damage. Accordingly, it was investigated whether sUV exposure can also affect hair follicles and induce an inflammatory response in the dermis of SkOs.
Furthermore, the secretion of inflammatory cytokines, such as IL-6, TNF-α, and IL-1β, increased by sUV exposure, was evaluated by ELISA.

SMILES	hair follicle length compared to the control (normal hair follicles)	apoptosis / death rate in hair follicles (hair follicles in SkOs; Example 6)	mRNA expression of ECM components associated with inflammatory cytokines and SASP (hair follicles in SkOs; hair follicles)	IκBα degradation (NF-κB; Western blotting, Example 6)	NF-κB nuclear translocation / activation / levels (NF-κB; Western blotting, Example 6)	phosphorylated IκBα (NF-κB; Western blotting, Example 6)	NF-κB translocation to the nuclei in hair follicles (NF-κB; immunofluorescence staining)	difference in IL-6 and TNF-α secretion between BAY11-7082-treated SkOs and UCB-Exos-treated SkOs ([1]; ELISA)	IL-6 in the cytoplasm in hair follicles ([1]; immunofluorescence staining)	expression of genes (IGF-1, WNT3A) associated with hair growth promotion (normal hair follicles; compared to the control)	hair loss-associated genes (DKK1, TGFb-2) (normal hair follicles; compared to the control)
C[C@]12CCC(=O)C[C@@H]1CC[C@@H]1[C@@H]2CC[C@]2(C)[C@@H](O)CC[C@@H]12 [DHT, dihydrotestosterone]	approximately 0.7 fold										
Nc1cc(N2CCCCC2)nc(N)[n+]1[O-] [minoxidil]	approximately 1.3 fold										
Cc1ccc(S(=O)(=O)/C=C/C#N)cc1 [BAY11-7082]	approximately 1.4 fold	reduced	dramatically reduced	inhibition	reduced	decreased	significant decrease	no significant difference	significant decrease	upregulated	downregulated
